The values that follow come from patent US11732029B2, “Methods and compositions for the treatment of wounds” (The University of Chicago, priority 2017, dated 2023).

Where two headings read alike, the source gives them in different places.

For assay [1] the following is noted: Ishihara et al. 2018; Martino et al. 2013; cited from earlier work.
For assay [2], the system named is human lung fibroblasts. Put plainly: Cell adhesion assay, fibroblasts on laminin peptide coated plates. Also on record: key to Cell adhesion Fibroblasts: ++ indicates high affinities; + indicates medium/low affinities. It counts as cell-based. The procedure: (§1) 96-well plates (non-tissue culture treated, Greiner Bio-one) were pre-coated with 1 μg/mL with laminin HBD peptides in PBS for 2 hrs at 37° C., followed by blocking with 2% BSA PBS for 1 h at RT. Cell adhesion assays were performed using human lung fibroblasts (Lonza) in FGM-2 medium (Lonza) or human umbilical vein endothelial cells (HUVEC; Lonza) in EGM-2 medium (Lonza) supplemented with 1% fetal bovine serum (FBS) and […] VEGF-A165, with or without 5 mM EDTA (Sigma-Aldrich). Cells were plated at 3000 cells/well on laminin peptide pre-coated plates and incubated for 30 min at 37° C., 5% CO2. Then, the medium was removed, and wells were quickly washed three times with PBS. Cell numbers were quantified using a CyQUANT assay, according to the manufacturer's instructions (Invitrogen). All cell lines were checked for mycoplasma contamination and used in passages from 5 to 8.

Assay [3] relates to syndecan-1, syndecan-2, syndecan-3, syndecan-4. Put plainly: Recombinant syndecan binding to synthesized laminin HBD peptides (ELISA). Details: species or system human; key to Interaction with Syndecans: ++ indicates high affinities; + indicates medium/low affinities. The procedure: ELISA tests were performed as described above. In brief, ELISA plates were coated with 1 μg/mL laminin peptide (sequences are described in Table 1, chemically synthesized by Genscript) in PBS for 2 hrs at 37° C. 1 μg/mL of BSA served as non-binding protein control. After blocking with 2% BSA PBS-T solution, 1 μg/mL of the recombinant human syndecan-1, syndecan-2, syndecan-3, syndecan-4 (all syndecan proteins are histidine-tagged; SinoBiological) were added. Bound GF was detected with anti-histidine tag antibody (1:1000 dilution, BioLegend).

Assay [4] relates to HUVEC cells. Put plainly: Migration assay (transwell). It counts as cell-based, human. The settings on record: 6 hr, 30 ng/mL VEGF-A165 with or without 0.1 μM peptide. As for the experimental part: A migration assay was performed as described previously^3. A QCM 24-Well Colorimetric Cell Migration Assay kit was used to perform migration assay. Both sides of inserts were coated with 0.1 μM of bovine collagen I (C4243, Sigma-Aldrich) for 1 hr at 37° C. Then, the inserts were washed with water, dried in a laminar flow cabinet and disposed on 24-well cell culture plate covers. Solutions containing 30 ng/mL of VEGF-A165 preincubated with or without 0.1 μM of α33043-3067 peptide in medium (MCDB-131, 0.05% BSA) were added to the bottom side of the transwell (500 μL/well). Directly thereafter, HUVEC cells in medium containing 0.05% BSA (300 μL/transwell, 4×10^4 cells/transwell) were added to the transwell upper parts. After 6 hr, migrated cells were stained and absorbance at 560 nm was measured according to the manufacturer's instructions.

Assay [5] has as its target T1, VEGF-A165 (Homo sapiens, UniProt P15692).
T1 construct: All growth factors (GFs) and chemokines were purchased in their mature forms; purchased PeproTech; host or cells: Escherichia coli
T1 sequence (P15692 27-191 isoform P15692-4 limits assumed): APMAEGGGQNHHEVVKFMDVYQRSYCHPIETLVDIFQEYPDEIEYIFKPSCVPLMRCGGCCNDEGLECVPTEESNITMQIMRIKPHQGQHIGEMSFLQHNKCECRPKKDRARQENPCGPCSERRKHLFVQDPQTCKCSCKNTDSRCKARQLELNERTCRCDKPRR
Put plainly: GF binding to recombinant laminin LG domain protein and synthesized laminin HBD peptides (ELISA). Conditions: plate coated with LG domain protein or peptide, 1 μg/mL GF, vs BSA-coated wells. The procedure:
(§2) ELISA tests were performed as described above. In brief, ELISA plates were coated with 1 μg/mL of laminin alpha 3 LG domain recombinant protein, laminin alpha 4 LG domain recombinant protein (R&D systems), laminin alpha 5 LG domain recombinant protein (LD BioPharma), or laminin peptide (sequences are described in Table 1, chemically synthesized by Genscript) in PBS for 2 hrs at 37° C. 1 μg/mL of BSA served as non-binding protein control. After blocking with 2% BSA PBS-0.05% Tween 20 (PBS-T) solution, 1 μg/mL of the recombinant human proteins (VEGF-A121, VEGF-A165, PlGF-1, PlGF-2, PDGF-BB or FGF-2) or 10 μg/mL of biotinylated heparin (Sigma-Aldrich) were added. Bound GF was detected with biotinylated antibodies for human VEGF, PlGF, PDGF-BB, or FGF-2 (R&D Systems). The antibodies were detected by streptavidin-HRP (R&D Systems).
For orientation: ELISA stands for enzyme-linked immunosorbent assay.

In assay [6] the target is T2, PDGF-BB (Homo sapiens, UniProt P01127).
T2 construct: All growth factors (GFs) and chemokines were purchased in their mature forms; purchased PeproTech; host or cells: Escherichia coli
The description is as above. The settings on record: plate coated with LG domain protein or peptide, 1 μg/mL GF, vs BSA-coated wells. The procedure: as §2

In assay [7] the test system is GFs. Put plainly: GF binding to synthesized laminin peptides (ELISA), all tested GFs together. Also on record: species or system human; key to Interaction with GFs: ++ indicates high affinities; + indicates medium/low affinities. The settings on record: summary Table 2. As for the experimental part: as §2
The nature of assay [8]: Heparin binding to synthesized laminin peptides (ELISA). Details: key to Interaction with Heparin: ++ indicates high affinities; + indicates medium/low affinities. As for the experimental part: as §2
The target in assay [9] is FGF-2 (Homo sapiens, UniProt P09038). Put plainly: GF binding to recombinant laminin LG domain protein and synthesized laminin HBD peptides (ELISA). Details: All growth factors (GFs) and chemokines were purchased in their mature forms; purchased PeproTech; host or cells: Escherichia coli. The settings on record: plate coated with LG domain protein or peptide, 1 μg/mL GF, vs BSA-coated wells. The procedure: as §2
FGF-2, sequence (P09038 143-288): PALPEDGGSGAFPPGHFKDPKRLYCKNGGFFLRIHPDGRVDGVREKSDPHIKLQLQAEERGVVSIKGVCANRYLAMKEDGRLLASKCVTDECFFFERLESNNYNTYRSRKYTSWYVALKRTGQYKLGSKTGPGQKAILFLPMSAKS

Assay [10] concerns the target T3, PlGF-2 (Homo sapiens, UniProt P49763).
T3 sequence (P49763 19-170 isoform P49763-3 limits assumed): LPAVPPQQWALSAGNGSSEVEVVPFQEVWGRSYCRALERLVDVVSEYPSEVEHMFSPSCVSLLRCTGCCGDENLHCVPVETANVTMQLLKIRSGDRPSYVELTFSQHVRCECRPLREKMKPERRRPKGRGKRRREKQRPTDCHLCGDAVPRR
The description is as above. Also on record: All growth factors (GFs) and chemokines were purchased in their mature forms; purchased PeproTech; host or cells: Escherichia coli. The settings on record: plate coated with LG domain protein or peptide, 1 μg/mL GF, vs BSA-coated wells. As for the experimental part: as §2

The test system of assay [11] is HUVEC. Kind of assay: Cell adhesion assay, HUVEC on laminin peptide coated plates. It counts as cell-based, human. Also on record: key to Cell adhesion HUVECs: ++ indicates high affinities; + indicates medium/low affinities. The procedure: as §1
Assay [12] deals with wound healing in the db/db mouse. Conditions: cited from earlier work.
Setting [13] is: peptide-coated plates, 30 min at 37° C., without EDTA.

With “GCGGSLRPAPPPISGGGYRARPAKAAATQKKVERKAPDA [FgHBD]”, in assay [1], the binding to heparin entry is “bind to heparin”.
“RLVFALGTDGKKLRIKSKEKCNDGK [α33043-3067, laminin α3 chain LG4-derived peptide, 25 aa]”: the fibroblast attachment entry in assay [2] (setting [13]) was “enhancement of fibroblast attachment”. In addition, in assay [2] (summary Table 2), the “Cell adhesion Fibroblasts” value was “++”. Moreover, in [3] (ELISA, peptide-coated plate, 1 μg/mL syndecan), the “binding to recombinant syndecans (syndecan 1-4)” value was “significant binding”. In addition, the “Interaction with Syndecans” value in assay [3] (summary Table 2) is “++”. Moreover, in assay [4], the “degree of migration of HUVEC cells” value is listed as “did not increase the degree of cell migration”. Further, the “binding to VEGF-A165” value in assay [5] was “bound”. In [6], the “binding to PDGF-BB” value is reported as “bound”. The “Interaction with GFs” value in assay [7] is listed as “++”. The binding to heparin result in assay [8] (ELISA, peptide-coated plate, 10 μg/mL biotinylated heparin) is reported as “bound to heparin”. The “Interaction with Heparin” value in assay [8] (summary Table 2) is reported as “++”. In addition, the “binding to FGF-2” value in assay [9] is recorded as “bound”. The “binding to PlGF-2” value in [10] is “bound”. Further, the “HUVEC attachment in the presence of EDTA” value in assay [11] (peptide-coated plates, 30 min, 5 mM EDTA) is on record as “even in the presence of EDTA”. For the same molecule, the HUVEC attachment result in assay [11] (setting [13]) is on record as “promoted HUVEC attachment”. In addition, the “Cell adhesion HUVECs” value in [11] (summary Table 2) was “++”.

B1: PDGF-BB: platelet-derived growth factor-BB; Regranex in the clinic (protein)
chain: SLGSLTIAEPAMIAECKTRTEVFEISRRLIDRTNANFLVWPPCVEVQRCSGCCNNRNVQCRPTQVQLRPVQVRKIEIVRKKPIFKKATVTLEDHLACKCETVAAARPVT
B1: the “wound healing in the db/db mouse” value in assay [12] (10 μg per wound) is recorded as “did not significantly enhance wound healing”.

B2: VEGF-A165: vascular endothelial growth factor-A165, recombinant (PeproTech) (protein)
chain: T1 sequence (P15692 27-191 isoform P15692-4 limits assumed)
On to B2, for which the “wound healing in the db/db mouse” value in assay [12] (20 μg per wound applied topically for five consecutive days) is “promote wound healing”. In addition, the “degree of migration of HUVEC cells” value in [4] was “increases the degree of migration”.

B3: LamLG4: laminin α-chain LG4 domain used as growth factor-binding domain (protein)
chain: SLNKPPFLMLLKGSTRFNKTKTFRINQLLQDTPVASPRSVKVWQDACSPLPKTQANHGALQFGDIPTSHLLFKLPQELLKPRSQFAVDMQTTSSRGLVFHTGTKNSFMALYLSKGRLVFALGTDGKKLRIKSKEKCNDGKWHTVVFGHDGEKGRLVVDGLRAREGSLPGNSTISIRAPVYLGSPPSGKPKSLPTNSFVGCLKNFQLDSKPLYTPSSSFGVSSCTG
On to B3, for which the binding to heparin result in assay [1] is on record as “bind to heparin”.
